Values joined by “and” are separate entries in the source; they are usually repeats but may differ in a detail not shown here. Identical values can stand only once.
Tests used:
EGFR [1] = molecular target: EGFR (UniProt P00533)
EGFR [2] = molecular target: EGFR (UniProt P00533); remark: listed apart in the source
EGFR [3] = molecular target: EGFR (UniProt P00533); remark: listed apart in the source
CDK2 = CDK2 (UniProt P24941); test: Enzyme Assay

EGFR, sequence (P00533 whole entry, looked up): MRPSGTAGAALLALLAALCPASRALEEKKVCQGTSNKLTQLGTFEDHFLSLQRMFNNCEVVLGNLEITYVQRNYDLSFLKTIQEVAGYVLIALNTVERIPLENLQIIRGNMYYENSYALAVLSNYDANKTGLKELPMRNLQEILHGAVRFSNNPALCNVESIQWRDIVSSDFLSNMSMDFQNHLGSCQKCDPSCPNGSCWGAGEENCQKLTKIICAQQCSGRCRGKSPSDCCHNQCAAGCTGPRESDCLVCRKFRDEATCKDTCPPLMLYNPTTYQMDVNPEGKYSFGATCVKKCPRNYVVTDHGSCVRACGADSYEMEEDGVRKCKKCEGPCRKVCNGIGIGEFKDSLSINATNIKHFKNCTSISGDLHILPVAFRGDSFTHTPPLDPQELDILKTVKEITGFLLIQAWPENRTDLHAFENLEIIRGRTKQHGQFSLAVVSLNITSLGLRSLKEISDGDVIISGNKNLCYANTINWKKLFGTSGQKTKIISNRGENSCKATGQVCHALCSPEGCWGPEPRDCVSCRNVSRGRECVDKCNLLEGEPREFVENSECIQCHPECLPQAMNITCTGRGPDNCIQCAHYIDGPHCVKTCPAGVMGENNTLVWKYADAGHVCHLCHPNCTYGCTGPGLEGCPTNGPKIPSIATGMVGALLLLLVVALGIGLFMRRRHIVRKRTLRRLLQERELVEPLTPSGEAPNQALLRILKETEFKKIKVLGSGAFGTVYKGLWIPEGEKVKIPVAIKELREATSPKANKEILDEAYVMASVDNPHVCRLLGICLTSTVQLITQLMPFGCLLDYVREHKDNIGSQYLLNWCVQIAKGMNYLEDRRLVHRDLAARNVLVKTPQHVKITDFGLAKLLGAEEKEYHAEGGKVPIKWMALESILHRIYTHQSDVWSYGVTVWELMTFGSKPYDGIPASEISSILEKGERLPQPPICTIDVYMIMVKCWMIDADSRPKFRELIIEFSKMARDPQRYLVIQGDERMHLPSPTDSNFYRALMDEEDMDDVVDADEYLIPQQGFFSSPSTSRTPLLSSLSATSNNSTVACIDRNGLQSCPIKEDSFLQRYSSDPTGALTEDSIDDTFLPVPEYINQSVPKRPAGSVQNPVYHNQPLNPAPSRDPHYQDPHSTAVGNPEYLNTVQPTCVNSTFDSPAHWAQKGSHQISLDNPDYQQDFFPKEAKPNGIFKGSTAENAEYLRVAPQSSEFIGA

Compound | IC50 (EGFR [1]) [µM] | IC50 (EGFR [2]) [µM] | IC50 (EGFR [3]) | IC50 (CDK2) [µM]
COc1cccc(-c2ccc3c(c2)NC(=O)/C3=C\c2[nH]c3c(c2CCC(=O)O)CCCC3)c1 | > 100 | 11.4 | 37.1 µM | –
CCOc1cccc(-c2ccc3c(c2)NC(=O)/C3=C\c2cc3c([nH]2)CCCC3)c1 | > 100 | > 100 | > 50 µM | –
Cc1ccc(Cn2nc(C)cc2C(=O)Nc2ccc(C(F)(F)F)cc2)cc1 | – | – | 7.1 µM and 9.8 µM | –
O=C1Nc2cc(-c3ccccc3)ccc2/C1=C/c1cnc[nH]1 | > 100 | > 100 | > 50 µM | –
CC(C)(C)c1cc(C(=O)Nc2cccc(C(F)(F)F)c2)n(Cc2ccccc2)n1 | – | – | 53.4 µM | –
CC(C)(C)c1cc(C(=O)Nc2ccccn2)n(Cc2ccccc2)n1 | – | – | > 100 µM | –
CC(C)(C)c1cc(C(=O)Nc2cccc(-c3ccccc3)c2)n(Cc2ccccc2)n1 | – | – | > 50 µM | –
O=C1Nc2ccccc2/C1=C\c1c[nH]cn1 | – | – | – | < 0.78
CC(C)(C)c1cc(C(=O)Nc2ccncc2)n(Cc2ccccc2)n1 | – | – | 28.2 µM | –
COc1ccc(-c2ccccc2)cc1NC(=O)c1cc(C(C)(C)C)nn1Cc1ccccc1 | – | – | > 50 µM | –
CC(C)(C)c1cc(C(=O)Nc2ccc(C(F)(F)F)cn2)n(Cc2ccccc2)n1 | – | – | 46.8 µM | –
COc1cccc(-c2cc(NC(=O)c3cc(C(C)(C)C)nn3Cc3ccccc3)ccc2OC)c1 | – | – | > 50 µM | –
CC(C)(C)c1cc(C(=O)Nc2cnc3ccccc3c2)n(Cc2ccccc2)n1 | – | – | 10.2 µM | –
CCc1cc(CC)c(/C=C2\C(=O)Nc3cc(-c4ccc(OC)cc4)ccc32)[nH]1 | > 100 | > 100 | > 50 µM | –
Cc1cc(C)c(NC(=O)c2cc(C(C)(C)C)nn2Cc2ccccc2)cn1 | – | – | 69.6 µM | –
CCOc1cccc(-c2ccc3c(c2)NC(=O)/C3=C\c2[nH]c(CC)cc2CC)c1 | > 100 | > 100 | > 50 µM | –
O=C1Nc2ccc([N+](=O)[O-])cc2/C1=C\c1c[nH]cn1 | – | – | – | < 0.78
CC(C)(C)c1cc(C(=O)Nc2c(F)c(F)nc(F)c2F)n(Cc2ccccc2)n1 | – | – | 26 µM | –

Compound | IC50 (EGFR [1]) [µM] | IC50 (EGFR [2]) [µM] | IC50 (EGFR [3]) | IC50 (CDK2) [µM]
COc1ccc(-c2ccc3c(c2)NC(=O)/C3=C\c2[nH]c3c(c2CCC(=O)O)CCCC3)cc1 | > 100 | > 100 | – | –
CCOc1cccc(-c2ccc3c(c2)NC(=O)/C3=C\c2cnc[nH]2)c1 | > 100 | > 100 | > 50 µM | –
CC(C)(C)c1cc(C(=O)Nc2cc3ccccc3cn2)n(Cc2ccccc2)n1 | – | – | > 100 µM | –
COc1cccc(-c2ccc3c(c2)NC(=O)/C3=C\c2ccc(N3CCN(C=O)CC3)cc2)c1 | > 100 | > 100 | > 50 µM | –
COc1ccccc1-c1ccc2c(c1)NC(=O)/C2=C\c1cc2c([nH]1)CCCC2 | > 100 | > 100 | 34.1 µM | –
CC(C)(C)c1cc(C(=O)Nc2ccccc2C(F)(F)F)n(Cc2ccccc2)n1 | – | – | 46.8 µM | –
COc1ccc(-c2ccc3c(c2)NC(=O)/C3=C\c2ccc(C)s2)cc1 | > 100 | > 100 | > 50 µM | –
Nc1ccc2c(c1)/C(=C\c1c[nH]cn1)C(=O)N2 | – | – | – | < 0.78
COc1ccc(-c2ccc3c(c2)NC(=O)/C3=C\c2[nH]c3c(c2C)CCCC3)cc1 | > 100 | > 100 | > 50 µM | –
CCc1cc(CC)c(/C=C2\C(=O)Nc3cc(-c4cccc(OC)c4)ccc32)[nH]1 | > 100 | > 100 | > 50 µM and 30.9 µM | –
O=C1Nc2ccc(F)cc2/C1=C\c1c[nH]cn1 | – | – | – | 7.7
COc1ccc(-c2ccc3c(c2)NC(=O)/C3=C\c2cnc[nH]2)cc1 | > 100 | > 100 | > 50 µM | –
COc1ccccc1-c1ccc2c(c1)NC(=O)/C2=C\c1cnc[nH]1 | > 100 | > 100 | – | –
CCc1cc(CC)c(/C=C2\C(=O)Nc3cc(-c4ccccc4OC)ccc32)[nH]1 | > 100 | > 100 | – | –
Cc1cc(C)c2c(c1)NC(=O)/C2=C/c1c[nH]cn1 | – | – | – | < 0.78
COc1ccccc1-c1ccc2c(c1)NC(=O)/C2=C\c1[nH]c2c(c1C)CCCC2 | > 100 | > 100 | > 50 µM | –
COc1cccc(-c2ccc3c(c2)NC(=O)/C3=C\c2[nH]c3c(c2C)CCCC3)c1 | > 100 | > 100 | > 50 µM | –

From the Kinase Knowledgebase extract (Sharma et al. 2016)
